Experimental data as given in patent publication US20230382916A1, “HETEROARYL HETEROCYCLIC COMPOUNDS AND USES THEREOF” (HUTCHISON MEDIPHARMA LIMITED, priority 2020, published 2023).

How the values were obtained:
[1] = Stability test in liver microsomes (rat); format: in vitro ADME; conditions: rat liver microsomes 0.5 mg/mL, 1 μM compound
Description: Both male CD-1 mouse pooled liver microsomes and male SD rat pooled liver microsomes were purchased from BioreclamationIVT Corporation, USA.
The test compound stock solution was diluted with an organic solvent (usually a mixture of acetonitrile, methanol and water with various ratios, depending on the solubility of the compound, if necessary, 1 N hydrochloric acid or 1 N sodium hydroxide would be added to facilitate solubilization) to the 0.1 mM (the final concentration of the compound in the reaction system was 1 μM) and the concentration percentage of the organic solvents in the incubation system no more than 1% (wherein the percentage of DMSO was required to be no more than 0.1%). An appropriate amount of 100 mM NADP, 500 mM G-6-P and 100 Unit/mL G-6-PDH were mixed and diluted with ultrapure water (the final system contains 1 mM NADP, 5 mM G-6-P and 1 Unit/mL G-6-PDH), pre-incubated in a 37° C. water bath for 10 minutes and then placed on ice for use as a NADPH regeneration solution. 20 mg/mL liver microsomes solution and 200 mM phosphate buffer were mixed, and diluted with ultrapure water to give a liver microsomes solution containing 2.5 mg/mL liver microsomes (the final concentration of the reaction system is 0.5 mg/mL) and 50 mM phosphate buffer. The diluted liver microsomes solution was mixed with 0.1 mM compound solution, a mixture of 100 mM EDTA, 300 mM MgCl2 solution, 200 mM phosphate buffer (the final system was 3 mM MgCl2, 1 mM EDTA and 50 mM phosphate buffer) and water in an appropriate volume was added. Finally, the NADPH regeneration solution was added, then the reaction solution was placed in a 37° C. water bath to start the reaction (the reaction time was 30 minutes), and the reaction was stopped by adding the ice-cold acetonitrile reaction stopping solution containing the internal standard. The 0-minute sample was not incubated in a 37° C. water bath, and its difference from the 30-minute sample further lies in that the ice-cold acetonitrile reaction stopping solution containing the internal standard was added first, and then the NADPH regeneration solution was added. The sample added with the reaction stopping internal standard solution was vortexed and mixed well, and then centrifuged at 4400 rpm for 10 minutes. The supernatant was taken and diluted ten times with 50% methanol for LC-MS/MS analysis.
LC-MS/MS was used to determine the concentration of the compound in the sample. The percentage of the remaining compound after 30 minutes of incubation comparing with that in the 0-minute sample was calculated using the peak area ratio of the compound to the internal standard as an indicator, to evaluate the metabolic stability of the compound.

[2] = tested on: anti-IgD antibody-induced B cell activation in mice whole blood; test: In vivo efficacy of the inhibitory effect on BTK target: anti-IgD antibody-induced B cell activation in mice whole blood after oral dosing; parameters: species or system mouse; conditions: 5 mg/kg oral single dose, 16 h
Description: Objects: B cells in mice whole blood were induced and activated by the anti-IgD antibody, and the inhibitory effect of the compound of the present invention on B cell activation in vivo was studied, so as to determine the inhibitory effect of the compound of the present invention on the BTK target in vivo.
Methods: C57BL/6 mice (female, 18-20 g, purchased from Shanghai Lingchang Biotechnology Co., Ltd.) were grouped according to Table 1.
The animals of each group were administered, then were placed in CO2 for anesthesia at designated time points, blood samples were taken from […] via retro-orbital bleeding, and heparin was used for anticoagulation; 90 μL of whole blood was taken from mice of each group, and added to a 96 well culture plate, and anti-mouse IgD antibody (BIO-RAD, Cat #MCA4693) was added to each well to a final concentration of […] (respectively for each drug-treated group and anti-IgD antibody-inducted vehicle group); in addition, 90 μL of whole blood of mice in the vehicle group was taken and added to the 96-well culture plate, and PBS (phosphate buffer, GIBCO, Cat #C20012500BT) was added to each well to a final concentration of 0.01 μg/L (namely, the vehicle control group); Each group was mixed well and incubated in a 37° C./5% CO2 incubator for 4 hours. In addition, the blood of mice in the drug-treated group was centrifuged to separate plasma for blood concentration analysis.
B cell activation ratio=percentage of CD69^+CD19^+ double positive B cells/percentage of CD19^+ single positive B cells
Inhibition ratio=(percentage of B cell activation ratio in anti-IgD antibody-induced vehicle group−percentage of B cell activation ratio in drug-treated group)/(percentage of B cell activation ratio in anti-IgD antibody−induced vehicle group-percentage of B cell activation ratio in vehicle control group)×100%
All data are represented by mean±standard error. For the comparison between each drug-treated group and the anti-IgD antibody-induced vehicle group, p value was calculated by Graphpad Prism using one-way ANOVA analysis of variance and Dunnett's test, and for the comparison between each drug-treated group, p value was calculated by using unpaired t test.

What does the source list for `C[C@H]1CN(C2COC2)C[C@H](C)N1c1ccc(Nc2cc(-c3ccnc(-n4ccn5c6c(cc5c4=O)CC(C)(C)C6)c3CO)cn(C)c2=O)nc1` [Compound 1, 2-(5-((5-((2S,6S)-2,6-dimethyl-4-(oxetan-3-yl)piperazin-1-yl)pyridin-2-yl)amino)-3′-(hydroxymethyl)-1-methyl-6-oxo-1,6-dihydro-[3,4′-bipyridin]-2′-yl)-7,7-dimethyl-7,8-dihydro-2H-cyclopenta[4,5]pyrrolo[1,2-a]pyrazin-1(6H)-one]?
RLM, percentage of the remaining compound after 30 minutes of incubation [1]: 87.9%; Inhibition ratio (%) on B cell activation [2]: 60%; B cell activation ratio (the population of activated B cells in total B cells) ([2]; mean ± standard error): 16.0 ± 3.9; Inhibition ratio (%) on B cell activation ([2]; listed as compound 1): 60%
